{"source": "patent US20080119530A1", "about": "“Method for treatment and prevention of ultraviolet light induced skin pathologies” (priority 2006, published 2008)", "key": {"Cdc25a": {"test_system": "Cdc25a", "assay": "Cdc25a immunoblotting in keratinocytes", "format": "cell-based, mouse", "settings": "vs appropriate controls", "procedure": "Immunoblotting. Flash frozen skin was ground with a mortar and pestle on dry ice, homogenized in lysis buffer containing 10 mM Tris (pH 7.4), 150 mM NaCl, 10% glycerol, 1% Triton X-100, 1 mM EDTA, Complete Protease Inhibitor Cocktail (Roche, Germany), 1 mM Na3V O4, 1.5 μM EGTA, and 10 μM NaF. Protein was quantified using the Coomassie Brilliant Blue G-250 protein assay (Bio-Rad, Hercules, Calif.). The evenness of loading and transfer was determined by staining with Ponceau S and by actin immunoblotting. […]\nCell culture. […] Transfection efficiency was quantified by determining the proportion of the cells that incorporated the fluorescent Cy3-conjugated siRNA or GFP one day post-transfection. […]\nIn order to understand how Erbb2 regulates S-phase progression following UV irradiation, signaling pathways known to regulate progression into and through S-phase were examined. […] The effect of abrogation of Erbb2 on Cdc25a occurred post-transcriptionally, since no decrease in Cdc25a mRNA was detected in our microarray analysis using the Erbb2 inhibitor (32). […]"}, "Tg.AC mice": {"test_system": "Tg.AC mice", "assay": "UV-induced skin tumorigenesis in v-rasHa transgenic Tg.AC mice", "format": "in vivo, mouse", "source_text": "Animals. Homozygous v-rasHa transgenic mice on an FVB/N background were used in in vivo experiments. To obtain keratinocytes with genetic ablation of Erbb2, loxP sites were inserted flanking exon 2 of Erbb2 such that splicing from exon1 to downstream introns upon Cre recombinase expression creates a frameshift mutation. Mice were maintained in our animal facility and provided with Purina lab chow (Nestle Purina PetCare, St. Louis, Mo.) and water ad libitum. The dorsal skin was clipped one day before treatment using electric clippers (Wahl, Sterling, II) and shaved on the day of treatment with a Remington Microscreen shaver (Madison, N.C.). […] The Ultraviolet-B TL 40W/12 RS bulbs (Philips, Somerset, N.J.) used emitted approximately 30% UVA, 70% UVB and <1% UVC, with a total output of 470 μW/cm^2, as measured with radiometric photodetector probes (Newport, Irvine, Calif.). For tumor experiments, homozygous Tg.AC mice were treated and exposed twice with an interval of 7 d. Tumor number was counted and tumor volume measured weekly using calipers. Skin-fold thickness was measured using calipers (Mitutoyo, Aurora, Ill.) to lightly pinch the dorsal skin. All animal procedures were performed in accordance with American Association of Laboratory Animal Care guidelines and approved by Creighton University's Institutional Animal Care and Use Committee.\nStatistical methods. The tumor experiment was analyzed using two-way ANOVA. Statistical significance in other experiments was assessed using two-way ANOVA or Student's t-test with Bonferroni post-test. All experiments, excluding the tumor experiment, were replicated several times and consistent results obtained.\nThe skin tumorigenesis experiment was performed in v-ras^Ha transgenic Tg.AC mice because of their enhanced sensitivity to UV-induced skin tumorigenesis (13; 52). […] While the vehicle-treated mice continued to accrue tumors throughout the duration of the experiment, the AG825-treated group reached a plateau in tumor number by 7 weeks after the first UV exposure. By the end of the experiment, mean tumor volume was also 70% less in the AG825-treated group when compared to the vehicle control. Representative tumors from each treatment were examined histologically and all were benign squamous papillomas with similar differentiation status.\nUpon activation, Erbb2 heterodimerizes with either EGFR or Erbb3 to transduce signals. Support for the hypothesis that Erbb2 increases skin carcinogenesis comes from our investigations of the functions of its dimerization partner EGFR. A tumor study was conducted to assess the role of EGFR in the clonal expansion of transformed cells to form benign tumors in the skin of v-ras^Ha transgenic Tg.AC mice. Inhibition of EGFR with the tyrphostin inhibitor AG1478 decreased the number of tumors that developed by about 50% in UV-exposed v-rasHa transgenic mice. Mean tumor volume was 80% less upon inhibition of EGFR-mediated signaling when compared to, UV-exposed and vehicle-treated controls."}, "primary keratinocytes": {"test_system": "primary keratinocytes", "settings": "cited from earlier work"}, "[1]": {"settings": "current Erbb2-targeted therapies; cited from earlier work"}}, "data": [{"compound": "COc1cc2ncnc(Nc3cccc(Cl)c3)c2cc1OC", "note": "[AG1478]", "values": [{"measurement": "Cdc25a immunoreactivity", "setting": "Cdc25a", "result": "not decreased"}, {"measurement": "mean tumor volume less than UV-exposed vehicle-treated controls", "setting": "Tg.AC mice; EGFR inhibition", "result": 80, "unit": "%"}, {"measurement": "decrease in the number of tumors that developed", "setting": "Tg.AC mice; UV-exposed v-rasHa transgenic mice, EGFR inhibition", "result": "about 50%"}, {"measurement": "UV-induced carcinogenesis (FIG. 6)", "setting": "Tg.AC mice; topical treatment 2 h prior to UV irradiation", "result": "suppress"}]}, {"compound": "O=c1[nH]cc(F)c(=O)[nH]1", "note": "[5-FU, 5-fluorouracil]", "values": [{"measurement": "S-phase arrest in keratinocytes by chemotherapeutic agents", "setting": "primary keratinocytes", "result": "cause S-phase arrest"}]}, {"compound": "CC[C@@]1(O)C(=O)OCc2c1cc1n(c2=O)Cc2cc3ccccc3nc2-1", "note": "[camptothecin]", "values": [{"measurement": "S-phase arrest in keratinocytes by chemotherapeutic agents", "setting": "primary keratinocytes", "result": "cause S-phase arrest"}]}, {"compound": "COCC(=O)NC/C=C/c1ccc2ncnc(Nc3ccc(Oc4ccc(C)nc4)c(C)c3)c2c1", "note": "[CP-724714]", "values": [{"measurement": "skin toxicity", "setting": "[1]", "result": "Low incidence"}]}, {"compound": "pertuzumab: current Erbb2-targeted therapy", "values": [{"measurement": "skin toxicity", "setting": "[1]", "result": "Low incidence"}]}]}
